Experimental data from paper PMC11167047 (Cell Death Discovery, 2024).

How the values were obtained:
Assay in all cases: kinome screen (33PanQinase)
Format in all cases: biochemical
ERBB4 = molecular target: T1, ERBB4 (Homo sapiens, UniProt Q15303)
T1 construct: purchased Reaction Biology Europe GmbH (formerly ProQinase)
Protocol: (§1) The Kinome Screening was performed by Reaction Biology Europe GmbH (http://reactionbiology.com; Freiburg i. Br., Germany).

CK2α1 = molecular target: T2, CK2α1 (Homo sapiens, UniProt P68400)
T2 construct: purchased Reaction Biology Europe GmbH (formerly ProQinase)
Protocol: as §1

JAK2 = molecular target: T3, JAK2 (Homo sapiens, UniProt O60674)
T3 construct: purchased Reaction Biology Europe GmbH (formerly ProQinase)
T3 sequence (O60674 whole entry): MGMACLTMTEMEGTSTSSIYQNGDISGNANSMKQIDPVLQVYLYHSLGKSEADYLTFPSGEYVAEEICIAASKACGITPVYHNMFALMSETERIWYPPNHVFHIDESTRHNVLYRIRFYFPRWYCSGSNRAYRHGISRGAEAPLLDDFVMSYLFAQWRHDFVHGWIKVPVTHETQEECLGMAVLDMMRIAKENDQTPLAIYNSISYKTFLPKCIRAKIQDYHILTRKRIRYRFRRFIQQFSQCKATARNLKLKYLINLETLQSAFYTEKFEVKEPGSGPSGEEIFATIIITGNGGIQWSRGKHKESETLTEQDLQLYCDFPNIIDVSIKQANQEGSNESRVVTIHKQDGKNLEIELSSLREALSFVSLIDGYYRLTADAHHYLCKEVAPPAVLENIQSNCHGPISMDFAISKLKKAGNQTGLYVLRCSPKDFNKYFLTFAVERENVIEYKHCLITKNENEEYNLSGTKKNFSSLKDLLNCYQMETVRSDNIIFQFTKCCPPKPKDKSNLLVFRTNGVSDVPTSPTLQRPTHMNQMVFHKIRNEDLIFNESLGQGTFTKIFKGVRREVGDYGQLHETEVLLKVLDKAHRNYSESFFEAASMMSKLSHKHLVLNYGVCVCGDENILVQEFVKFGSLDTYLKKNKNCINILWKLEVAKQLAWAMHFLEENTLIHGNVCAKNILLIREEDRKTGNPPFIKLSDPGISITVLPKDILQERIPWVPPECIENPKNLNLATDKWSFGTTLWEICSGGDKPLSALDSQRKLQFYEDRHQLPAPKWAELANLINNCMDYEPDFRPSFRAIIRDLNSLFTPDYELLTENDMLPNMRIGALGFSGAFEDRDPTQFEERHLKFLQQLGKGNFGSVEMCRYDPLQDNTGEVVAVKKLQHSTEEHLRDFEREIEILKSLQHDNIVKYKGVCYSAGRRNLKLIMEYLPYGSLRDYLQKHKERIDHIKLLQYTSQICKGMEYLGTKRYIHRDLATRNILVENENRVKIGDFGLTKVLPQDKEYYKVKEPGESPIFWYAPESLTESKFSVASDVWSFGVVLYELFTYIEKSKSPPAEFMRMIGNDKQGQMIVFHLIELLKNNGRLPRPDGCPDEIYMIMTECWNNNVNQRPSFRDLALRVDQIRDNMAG
Protocol: as §1

NEK2 = molecular target: T4, NEK2 (Homo sapiens, UniProt P51955)
T4 construct: purchased Reaction Biology Europe GmbH (formerly ProQinase)
T4 sequence (P51955 1-445): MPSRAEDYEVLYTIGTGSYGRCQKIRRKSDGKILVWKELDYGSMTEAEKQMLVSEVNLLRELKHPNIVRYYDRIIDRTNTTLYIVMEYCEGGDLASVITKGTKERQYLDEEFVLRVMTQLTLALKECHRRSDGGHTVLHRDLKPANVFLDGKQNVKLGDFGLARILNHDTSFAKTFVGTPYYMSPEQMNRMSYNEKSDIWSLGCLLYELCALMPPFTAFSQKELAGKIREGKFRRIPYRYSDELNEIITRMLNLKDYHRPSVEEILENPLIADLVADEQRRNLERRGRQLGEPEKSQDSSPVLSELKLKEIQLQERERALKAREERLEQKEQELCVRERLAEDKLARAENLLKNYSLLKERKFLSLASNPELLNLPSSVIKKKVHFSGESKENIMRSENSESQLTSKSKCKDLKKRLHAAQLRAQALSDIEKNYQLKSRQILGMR
Protocol: as §1

FER = molecular target: T5, FER (Homo sapiens, UniProt P16591)
T5 construct: purchased Reaction Biology Europe GmbH (formerly ProQinase)
Protocol: as §1

BRK = molecular target: T6, BRK (Homo sapiens, UniProt Q13882)
T6 construct: purchased Reaction Biology Europe GmbH (formerly ProQinase)
Protocol: as §1

PAK4 = molecular target: T7, PAK4 (Homo sapiens, UniProt O96013)
T7 construct: purchased Reaction Biology Europe GmbH (formerly ProQinase)
Protocol: as §1

CDK9/CycK = molecular target: T8, CDK9/CycK (Homo sapiens, UniProt P50750)
T8 construct: purchased Reaction Biology Europe GmbH (formerly ProQinase)
T8 sequence (P50750 whole entry): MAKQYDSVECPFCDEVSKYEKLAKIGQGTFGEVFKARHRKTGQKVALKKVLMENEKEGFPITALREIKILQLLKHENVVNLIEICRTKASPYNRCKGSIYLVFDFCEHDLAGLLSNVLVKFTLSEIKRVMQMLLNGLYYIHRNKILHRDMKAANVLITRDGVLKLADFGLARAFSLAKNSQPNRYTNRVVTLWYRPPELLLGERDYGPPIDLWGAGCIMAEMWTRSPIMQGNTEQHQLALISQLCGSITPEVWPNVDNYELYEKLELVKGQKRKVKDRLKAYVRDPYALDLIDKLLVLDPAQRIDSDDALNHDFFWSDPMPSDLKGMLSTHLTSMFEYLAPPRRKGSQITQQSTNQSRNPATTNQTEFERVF
T8 sequence (O75909 whole entry partner): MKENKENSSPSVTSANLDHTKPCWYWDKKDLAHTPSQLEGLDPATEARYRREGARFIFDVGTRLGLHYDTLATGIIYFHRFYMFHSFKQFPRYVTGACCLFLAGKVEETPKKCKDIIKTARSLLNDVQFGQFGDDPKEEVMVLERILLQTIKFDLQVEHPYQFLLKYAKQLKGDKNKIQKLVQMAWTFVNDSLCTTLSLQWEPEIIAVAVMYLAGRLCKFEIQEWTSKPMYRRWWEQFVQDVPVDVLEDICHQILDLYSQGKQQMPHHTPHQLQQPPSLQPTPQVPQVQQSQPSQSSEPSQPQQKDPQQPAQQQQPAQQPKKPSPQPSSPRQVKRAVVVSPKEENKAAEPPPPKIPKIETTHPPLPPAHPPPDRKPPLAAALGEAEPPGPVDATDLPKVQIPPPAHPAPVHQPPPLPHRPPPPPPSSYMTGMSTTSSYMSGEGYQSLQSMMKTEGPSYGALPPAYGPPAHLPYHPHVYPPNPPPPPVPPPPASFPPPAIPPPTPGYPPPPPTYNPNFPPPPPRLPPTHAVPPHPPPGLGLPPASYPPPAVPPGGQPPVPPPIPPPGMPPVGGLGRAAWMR
Protocol: as §1

CDK4/CycD2 = molecular target: T9, CDK4/CycD2 (Homo sapiens, UniProt P11802)
T9 construct: purchased Reaction Biology Europe GmbH (formerly ProQinase)
T9 sequence (P11802 whole entry): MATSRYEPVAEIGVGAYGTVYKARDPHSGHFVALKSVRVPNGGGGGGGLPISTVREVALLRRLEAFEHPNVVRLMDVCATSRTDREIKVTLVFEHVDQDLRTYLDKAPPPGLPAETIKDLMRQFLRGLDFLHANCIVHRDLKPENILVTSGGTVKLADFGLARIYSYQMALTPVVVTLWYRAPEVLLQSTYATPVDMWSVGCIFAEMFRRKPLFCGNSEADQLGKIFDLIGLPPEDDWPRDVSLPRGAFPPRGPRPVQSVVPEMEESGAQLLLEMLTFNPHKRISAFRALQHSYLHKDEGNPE
T9 sequence (P30279 whole entry partner): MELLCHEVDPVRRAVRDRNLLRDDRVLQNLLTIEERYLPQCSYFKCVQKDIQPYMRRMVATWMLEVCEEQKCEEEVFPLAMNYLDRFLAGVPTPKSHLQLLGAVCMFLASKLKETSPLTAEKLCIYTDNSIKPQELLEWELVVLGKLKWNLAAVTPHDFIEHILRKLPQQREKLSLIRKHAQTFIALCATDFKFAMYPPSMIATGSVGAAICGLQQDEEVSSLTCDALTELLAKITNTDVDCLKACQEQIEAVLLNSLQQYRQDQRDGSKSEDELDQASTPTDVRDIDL
Protocol: as §1

PKCε = molecular target: T10, PKCε (Homo sapiens, UniProt Q02156)
T10 construct: purchased Reaction Biology Europe GmbH (formerly ProQinase)
T10 sequence (Q02156 1-737): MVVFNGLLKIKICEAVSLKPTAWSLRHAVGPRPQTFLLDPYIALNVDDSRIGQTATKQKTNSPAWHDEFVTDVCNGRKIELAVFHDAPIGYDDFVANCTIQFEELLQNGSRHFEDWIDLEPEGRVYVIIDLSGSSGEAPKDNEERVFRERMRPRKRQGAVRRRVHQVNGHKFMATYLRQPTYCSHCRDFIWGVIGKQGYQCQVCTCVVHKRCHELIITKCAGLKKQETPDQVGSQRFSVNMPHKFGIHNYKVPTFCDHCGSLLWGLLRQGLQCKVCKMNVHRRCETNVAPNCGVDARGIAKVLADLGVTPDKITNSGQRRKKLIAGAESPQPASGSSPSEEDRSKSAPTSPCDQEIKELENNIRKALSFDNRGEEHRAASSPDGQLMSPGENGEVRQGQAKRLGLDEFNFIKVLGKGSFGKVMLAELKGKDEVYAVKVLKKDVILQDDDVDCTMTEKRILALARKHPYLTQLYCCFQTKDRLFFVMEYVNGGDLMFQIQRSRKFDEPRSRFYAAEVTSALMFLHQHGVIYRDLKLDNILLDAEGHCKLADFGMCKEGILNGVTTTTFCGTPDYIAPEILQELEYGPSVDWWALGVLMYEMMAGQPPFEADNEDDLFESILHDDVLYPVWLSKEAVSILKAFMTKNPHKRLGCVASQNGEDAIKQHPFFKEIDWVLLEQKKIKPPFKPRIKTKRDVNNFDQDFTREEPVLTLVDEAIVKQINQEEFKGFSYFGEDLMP
Protocol: as §1

CDK2/CycE1 = molecular target: T11, CDK2/CycE1 (Homo sapiens, UniProt P24941)
T11 construct: purchased Reaction Biology Europe GmbH (formerly ProQinase)
Protocol: as §1

MAP4K4 = molecular target: T12, MAP4K4 (Homo sapiens, UniProt O95819)
T12 construct: purchased Reaction Biology Europe GmbH (formerly ProQinase)
T12 sequence (O95819 whole entry): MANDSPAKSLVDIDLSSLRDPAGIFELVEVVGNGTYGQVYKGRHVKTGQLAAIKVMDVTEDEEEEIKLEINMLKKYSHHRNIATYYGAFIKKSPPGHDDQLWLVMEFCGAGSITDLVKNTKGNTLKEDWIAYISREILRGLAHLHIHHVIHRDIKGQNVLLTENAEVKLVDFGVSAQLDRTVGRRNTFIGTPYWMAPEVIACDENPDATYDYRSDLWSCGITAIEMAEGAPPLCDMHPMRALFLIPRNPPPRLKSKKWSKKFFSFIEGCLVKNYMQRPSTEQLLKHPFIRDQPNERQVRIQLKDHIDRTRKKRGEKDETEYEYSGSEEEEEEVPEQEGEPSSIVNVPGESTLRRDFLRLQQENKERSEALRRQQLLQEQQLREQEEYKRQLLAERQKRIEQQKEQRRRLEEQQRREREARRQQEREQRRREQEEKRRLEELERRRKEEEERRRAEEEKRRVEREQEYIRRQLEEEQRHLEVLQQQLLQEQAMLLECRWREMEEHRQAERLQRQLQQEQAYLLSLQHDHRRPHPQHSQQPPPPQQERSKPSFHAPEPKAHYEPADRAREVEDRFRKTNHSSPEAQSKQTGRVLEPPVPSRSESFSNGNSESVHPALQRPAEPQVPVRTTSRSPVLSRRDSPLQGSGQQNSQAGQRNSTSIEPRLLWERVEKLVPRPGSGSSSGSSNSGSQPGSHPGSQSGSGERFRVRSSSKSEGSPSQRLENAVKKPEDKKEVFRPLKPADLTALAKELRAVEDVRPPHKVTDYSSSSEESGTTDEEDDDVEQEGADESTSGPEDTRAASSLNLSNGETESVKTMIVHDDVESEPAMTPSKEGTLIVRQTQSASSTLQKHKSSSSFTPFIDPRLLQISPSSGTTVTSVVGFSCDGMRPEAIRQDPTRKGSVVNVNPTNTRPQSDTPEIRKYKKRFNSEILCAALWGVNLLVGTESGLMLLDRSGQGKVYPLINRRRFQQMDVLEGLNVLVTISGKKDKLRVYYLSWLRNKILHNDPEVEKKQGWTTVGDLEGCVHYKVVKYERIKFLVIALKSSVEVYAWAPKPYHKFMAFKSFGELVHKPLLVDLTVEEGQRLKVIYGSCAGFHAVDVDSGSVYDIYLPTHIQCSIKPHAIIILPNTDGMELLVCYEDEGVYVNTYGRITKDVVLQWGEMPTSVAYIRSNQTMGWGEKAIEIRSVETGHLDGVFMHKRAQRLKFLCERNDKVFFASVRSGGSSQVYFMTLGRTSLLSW
Protocol: as §1

MAP3K10 = molecular target: T13, MAP3K10 (Homo sapiens, UniProt Q02779)
T13 construct: purchased Reaction Biology Europe GmbH (formerly ProQinase)
Protocol: as §1

HIPK3 = molecular target: T14, HIPK3 (Homo sapiens, UniProt Q9H422)
T14 construct: purchased Reaction Biology Europe GmbH (formerly ProQinase)
Protocol: as §1

MARK2 = molecular target: T15, MARK2 (Homo sapiens, UniProt Q7KZI7)
T15 construct: purchased Reaction Biology Europe GmbH (formerly ProQinase)
Protocol: as §1

CDK1/CycA2 = molecular target: T16, CDK1/CycA2 (Homo sapiens, UniProt P06493)
T16 construct: purchased Reaction Biology Europe GmbH (formerly ProQinase)
Protocol: as §1

RPS6KA2 = molecular target: T17, RPS6KA2 (Homo sapiens, UniProt Q15349)
T17 construct: purchased Reaction Biology Europe GmbH (formerly ProQinase)
T17 sequence (Q15349 whole entry): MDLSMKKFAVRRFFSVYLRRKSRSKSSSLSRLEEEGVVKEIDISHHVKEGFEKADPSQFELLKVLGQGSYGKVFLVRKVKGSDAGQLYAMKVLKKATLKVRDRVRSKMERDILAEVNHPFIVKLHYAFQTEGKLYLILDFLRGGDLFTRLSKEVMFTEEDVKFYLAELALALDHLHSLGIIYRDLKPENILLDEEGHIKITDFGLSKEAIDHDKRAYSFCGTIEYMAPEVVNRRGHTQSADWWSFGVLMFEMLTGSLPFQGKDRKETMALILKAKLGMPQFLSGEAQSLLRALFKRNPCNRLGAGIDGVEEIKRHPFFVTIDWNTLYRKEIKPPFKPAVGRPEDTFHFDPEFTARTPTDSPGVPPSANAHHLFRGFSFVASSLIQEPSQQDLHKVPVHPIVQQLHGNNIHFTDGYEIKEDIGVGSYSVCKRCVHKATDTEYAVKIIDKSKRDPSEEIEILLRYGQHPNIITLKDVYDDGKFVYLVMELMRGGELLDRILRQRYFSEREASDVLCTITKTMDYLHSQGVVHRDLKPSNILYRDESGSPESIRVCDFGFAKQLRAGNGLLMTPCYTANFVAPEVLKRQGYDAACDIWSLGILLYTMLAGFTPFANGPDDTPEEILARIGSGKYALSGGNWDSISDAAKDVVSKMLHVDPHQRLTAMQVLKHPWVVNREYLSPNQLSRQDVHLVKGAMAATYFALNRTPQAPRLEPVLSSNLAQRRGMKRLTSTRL
Protocol: as §1

p38β = molecular target: T18, p38β (Homo sapiens, UniProt Q15759)
T18 construct: purchased Reaction Biology Europe GmbH (formerly ProQinase)
T18 sequence (Q15759 whole entry): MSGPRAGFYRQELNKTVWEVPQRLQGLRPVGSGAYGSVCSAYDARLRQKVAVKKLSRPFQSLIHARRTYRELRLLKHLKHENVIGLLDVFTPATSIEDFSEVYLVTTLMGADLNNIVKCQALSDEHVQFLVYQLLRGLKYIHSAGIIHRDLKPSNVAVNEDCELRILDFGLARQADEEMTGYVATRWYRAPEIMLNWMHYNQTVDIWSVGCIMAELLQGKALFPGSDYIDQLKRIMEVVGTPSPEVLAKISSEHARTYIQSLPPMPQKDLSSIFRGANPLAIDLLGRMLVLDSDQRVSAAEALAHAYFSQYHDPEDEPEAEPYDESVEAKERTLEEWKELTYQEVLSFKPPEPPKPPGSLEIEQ
Protocol: as §1

CAMK1D = molecular target: T19, CAMK1D (Homo sapiens, UniProt Q8IU85)
T19 construct: purchased Reaction Biology Europe GmbH (formerly ProQinase)
Protocol: as §1

TLK2 = molecular target: T20, TLK2 (Homo sapiens, UniProt Q86UE8)
T20 construct: purchased Reaction Biology Europe GmbH (formerly ProQinase)
Protocol: as §1

SMILES	residual kinase activity (ERBB4; 0.3 µM)	residual kinase activity (CK2α1; 0.3 µM)	residual kinase activity (JAK2; 0.3 µM)	residual kinase activity (NEK2; 0.3 µM)	residual kinase activity (FER; 0.3 µM)	residual kinase activity (BRK; 0.3 µM)	residual kinase activity (PAK4; 0.3 µM)	residual kinase activity (CDK9/CycK; 0.3 µM)	residual kinase activity (CDK4/CycD2; 0.3 µM)	residual kinase activity (PKCε; 0.3 µM)	residual kinase activity (CDK2/CycE1; 0.3 µM)	residual kinase activity (MAP4K4; 0.3 µM)	residual kinase activity (MAP3K10; 0.3 µM)	residual kinase activity (HIPK3; 0.3 µM)	residual kinase activity (MARK2; 0.3 µM)	residual kinase activity (CDK1/CycA2; 0.3 µM)	residual kinase activity (RPS6KA2; 0.3 µM)	residual kinase activity (p38β; 0.3 µM)	residual kinase activity (CAMK1D; 0.3 µM)	residual kinase activity (TLK2; 0.3 µM)	other results
c1ccc(CNc2cc(-c3c[nH]c4ncccc34)ccn2)cc1 [meriolin 36]	101 % of control	99 % of control	40 % of control	95 % of control	66 % of control	66 % of control	56 % of control	2 % of control	21 % of control	5 % of control	1 % of control	6 % of control	50 % of control	45 % of control	98 % of control	2 % of control	6 % of control	77 % of control	70 % of control	149 % of control	residual kinase activity (ERBB4; 3 µM): 56 % of control; residual kinase activity (CK2α1; 3 µM): 53 % of control; residual kinase activity (JAK2; 3 µM): 8 % of control; residual kinase activity (NEK2; 3 µM): 72 % of control; residual kinase activity (FER; 3 µM): 22 % of control; residual kinase activity (BRK; 3 µM): 18 % of control; residual kinase activity (PAK4; 3 µM): 16 % of control; residual kinase activity (CDK9/CycK; 3 µM): 0 % of control; residual kinase activity (CDK4/CycD2; 3 µM): 3 % of control; residual kinase activity (PKCε; 3 µM): 1 % of control; residual kinase activity (CDK2/CycE1; 3 µM): 1 % of control; residual kinase activity (MAP4K4; 3 µM): 2 % of control; residual kinase activity (MAP3K10; 3 µM): 9 % of control; residual kinase activity (HIPK3; 3 µM): 11 % of control; residual kinase activity (MARK2; 3 µM): 63 % of control; residual kinase activity (CDK1/CycA2; 3 µM): 1 % of control; residual kinase activity (RPS6KA2; 3 µM): 0 % of control; residual kinase activity (p38β; 3 µM): 84 % of control; residual kinase activity (CAMK1D; 3 µM): 38 % of control; residual kinase activity (TLK2; 3 µM): 88 % of control
COc1ccnc2[nH]cc(-c3cc(N)nc(N)c3)c12 [meriolin 16]	90 % of control	104 % of control	80 % of control	96 % of control	58 % of control	85 % of control	74 % of control	0 % of control	34 % of control	4 % of control	0 % of control	29 % of control	76 % of control	7 % of control	88 % of control	5 % of control	34 % of control	88 % of control	81 % of control	91 % of control	residual kinase activity (ERBB4; 0.03 µM): 108 % of control; residual kinase activity (CK2α1; 0.03 µM): 106 % of control; residual kinase activity (JAK2; 0.03 µM): 102 % of control; residual kinase activity (NEK2; 0.03 µM): 103 % of control; residual kinase activity (FER; 0.03 µM): 63 % of control; residual kinase activity (BRK; 0.03 µM): 91 % of control; residual kinase activity (PAK4; 0.03 µM): 86 % of control; residual kinase activity (CDK9/CycK; 0.03 µM): 7 % of control; residual kinase activity (CDK4/CycD2; 0.03 µM): 81 % of control; residual kinase activity (PKCε; 0.03 µM): 25 % of control; residual kinase activity (CDK2/CycE1; 0.03 µM): 16 % of control; residual kinase activity (MAP4K4; 0.03 µM): 76 % of control; residual kinase activity (MAP3K10; 0.03 µM): 99 % of control; residual kinase activity (HIPK3; 0.03 µM): 53 % of control; residual kinase activity (MARK2; 0.03 µM): 91 % of control; residual kinase activity (CDK1/CycA2; 0.03 µM): 32 % of control; residual kinase activity (RPS6KA2; 0.03 µM): 87 % of control; residual kinase activity (p38β; 0.03 µM): 79 % of control; residual kinase activity (CAMK1D; 0.03 µM): 102 % of control; residual kinase activity (TLK2; 0.03 µM): 111 % of control
